Columns and labels:
DCAMKL-1 = experiment: siRNA knockdown of DCAMKL-1 in AsPC-1 pancreatic cancer cells, real-time RT-PCR; assay type: cell-based, human; conditions: AsPC-1 cells
Protocol: Cell Culture: AsPC-1 and BxPC3 human pancreatic adenocarcinoma cell lines were obtained from the American Type Culture Collection and grown in Dulbecco's modified Eagle medium (DMEM) supplemented with 10% fetal bovine serum and 100 U/mL penicillin-streptomycin in a humidified chamber at 37° C. with 5% CO2.
Silencer RNA: DCAMKL-1 small interfering RNA (siRNA) (si-DCAMKL-1) sequence targeting the coding region of DCAMKL-1 (accession No. NM_004734; SEQ ID NO:1) ([…]tt (SEQ ID NO:3)) and scrambled siRNAs (si-Scr) not matching any of the human genes were obtained (Ambion Inc, Austin, Tex.) and transfected using siPORT™ NeoFX™ (Ambion, Inc).
Real-time Reverse Transcription-Polymerase Chain Reaction Analyses: Total RNA isolated from human pancreatic cancer cells or cells sorted from normal mouse pancreas were subjected to reverse transcription with Superscript II RNase H-Reverse Transcriptase and random hexanucleotide primers (Invitrogen, Carlsbad, Calif.). The complementary DNA (cDNA) was subsequently used to perform real-time polymerase chain reaction (PCR) by SYBR chemistry (SYBR Green I; Molecular Probes, Eugene, Oreg.) for specific transcripts using gene specific primers and Jumpstart Taq DNA polymerase (Sigma—Aldrich, St. Louis, Mo.). […] The changes in mRNA were expressed as fold change relative to control with ±SEM value.
miRNA Analysis: total RNA isolated from human pancreatic cancer cell lines or cells sorted from normal mouse pancreas was subjected to reverse transcription with Superscript II RNase H-Reverse Transcriptase and random hexanucleotide primers (Invitrogen). The cDNA was subsequently used to perform real-time PCR by SYBR chemistry (SYBR Green I; Molecular Probes) for pri-let-7a, pri-miR-144 and pri-miR-200a transcripts using specific primers and Jumpstart Taq DNA polymerase (Sigma—Aldrich). […] The changes in pri-miRNA were expressed as fold change relative to control with ±SEM values.

[1] = system: let-7 family binding sites (similar to KRAS 3' UTR); experiment: KRAS-Luc luciferase reporter gene assay in AsPC-1 cells; assay type: cell-based, human
Text: (§1) Luciferase Reporter Gene Assay: pLet7a-Luc reporter vector contains a let-7a miRNA specific binding site at the 3′ UTR of the firefly (Photinus pyralis) luciferase gene, pMiR-144-Luc reporter vector containing miR-144 miRNA specific binding site at the 3′UTR of the firefly luciferase gene and KRAS-Luc reporter vector containing specific binding sites for let-7 family members at the 3′UTR of the firefly luciferase gene were obtained from Signosis, Inc. (Sunnyvale, Calif.). Human pancreatic cancer cell lines were transfected with the pLet7a-Luc, pMiR-144-Luc and KRAS-Luc reporter vectors separately with Renilla luciferase expressing plasmid pRL-TK (Promega) along with DCAMKL-1, or scrambled siRNA-using siPORT™ NeoFX™ transfection reagent (Ambion, Inc.). Luciferase activity was determined as per the manufacturer's instructions (Dual Luciferase Reporter Assay System; Promega) using a BioTek Synergy HT (Winooski, Vt.) as described herein above. The activity, normalized to Renilla luciferase activity, is presented as relative luciferase units relative to control with ±SEM values. Assays were performed in triplicate wells, and experiments were repeated 3 times.

PICSCs = experiment: Growth and survival of PICSCs after drug treatment; assay type: cell-based, mouse; conditions: siRNA transfection, 10 nM
Protocol: The PICSCs cells were treated with 100 μM drug (suprapharmacological dose) for 48 hours, and their growth and survival were evaluated. […] Moreover, the in vitro testing strategies allows for a mechanistic study of such compounds.

miR-144 miRNA = experiment: pMiR-144-Luc luciferase reporter gene assay in AsPC-1 cells; assay type: cell-based, human
Text: as §1

Sequence of DCAMKL-1 (O15075 other isoform, or with tags, fused parts or gaps): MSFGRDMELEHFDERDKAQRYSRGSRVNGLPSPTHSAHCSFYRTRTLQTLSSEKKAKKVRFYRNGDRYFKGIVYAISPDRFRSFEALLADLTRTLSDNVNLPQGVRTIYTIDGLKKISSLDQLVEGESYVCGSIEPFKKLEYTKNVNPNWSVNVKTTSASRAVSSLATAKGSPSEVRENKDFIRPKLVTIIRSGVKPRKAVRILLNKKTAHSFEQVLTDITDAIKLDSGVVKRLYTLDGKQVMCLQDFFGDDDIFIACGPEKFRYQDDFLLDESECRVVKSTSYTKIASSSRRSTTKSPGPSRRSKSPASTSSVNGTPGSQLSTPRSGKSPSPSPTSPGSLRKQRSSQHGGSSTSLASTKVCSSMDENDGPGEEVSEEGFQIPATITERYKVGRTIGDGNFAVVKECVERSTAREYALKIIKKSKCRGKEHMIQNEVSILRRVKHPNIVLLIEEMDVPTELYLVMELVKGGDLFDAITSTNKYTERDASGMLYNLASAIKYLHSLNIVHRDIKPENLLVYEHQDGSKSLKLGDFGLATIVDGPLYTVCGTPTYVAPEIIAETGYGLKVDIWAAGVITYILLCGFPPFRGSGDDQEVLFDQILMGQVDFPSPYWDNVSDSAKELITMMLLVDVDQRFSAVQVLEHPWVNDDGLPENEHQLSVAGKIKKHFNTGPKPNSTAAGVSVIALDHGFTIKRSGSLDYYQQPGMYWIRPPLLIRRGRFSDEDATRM

si-DCAMKL-1: siRNA targeting the coding region of DCAMKL-1 (NM_004734), sequence GGGAGUGAGAACAAUCUAC (SEQ ID NO:3) (chemistry not given here; listed as Homo sapiens)
E-cadherin expression (DCAMKL-1): upregulation | Notch-1 expression (DCAMKL-1): significant and a dose dependent downregulation | Slug mRNA expression (DCAMKL-1): downregulation | Snail mRNA expression (DCAMKL-1): downregulation | Twist mRNA expression (DCAMKL-1): downregulation | ZEB1 expression (DCAMKL-1): downregulation | ZEB2 expression (DCAMKL-1): downregulation | c-Myc expression (DCAMKL-1): significant and a dose dependent downregulation | pri-miR-200a expression (DCAMKL-1): upregulation | increase in pri-miR-144 miRNA expression (DCAMKL-1; compared to control and siSCR): 2.5 fold | reduction of c-Myc mRNA expression (DCAMKL-1; compared to control and siSCR): 50% | reduction in KRAS mRNA expression (DCAMKL-1; compared to control or siSCR): 45% | reduction in Notch-1 mRNA (DCAMKL-1; compared to control or siSCR): 50% | DCAMKL-1 mRNA expression (DCAMKL-1; compared to siSCR or untreated): decreases | DCAMKL-1 protein (DCAMKL-1; compared to siSCR or untreated): decreases | induction of pri-let-7a miRNA (DCAMKL-1; real-time RT-PCR): 3 fold | luciferase activity (KRAS-Luc, let-7 family binding sites) [1]: dose-dependent reduction | neurite formation, cell growth and cell death of PICSCs (PICSCs): inhibited neurite formation, suppressed cell growth and induced cell death | luciferase activity (miR-144 binding site in 3' UTR) (miR-144 miRNA): dose-dependent reduction

Source: patent publication US8936941B2, “Compositions useful for cancer detection and treatment, a cancer stem cell model, and methods of production and use thereof” (priority 2008, dated 2015)
